Reference: patent US20040103453A1, “Lipoxygenase genes, promoters, transit peptides and proteins thereof” (priority 2000, published 2004)
Entries after “also recorded” stand apart in the source; their conditions may differ.

What was measured:
[1] = test system: RCI-1 transcripts; experiment: RNA gel blot (Northern) analysis of RCI-1 transcripts in treated rice leaves; type: in vivo, Oryza sativa cv. Kusabue; details: for RCI-1 transcript (mRNA) accumulation: RNA from chemically treated rice leaves, INA and BTH sprayed onto leaves, probenazole by soil drench
[2] = test system: rice blast disease; details: treatment of rice; cited from earlier work
[3] = test system: lipoxygenase (LOX, linoleate:oxygen oxidoreductase, EC 1.13.11.12); details: treatment of rice; cited from earlier work
[4] = test system: lipoxygenase (LOX) enzyme activity in rice leaves; experiment: LOX enzyme activity in BTH-treated rice leaves; type: in vivo, Oryza sativa cv. Kusabue; details: between 24 and 48 h after BTH treatment
[5] = test system: L-2 transcripts; experiment: RNA gel blot probed with rice LOX cDNA L-2; type: in vivo; details: RNA from treated rice plants
[6] = test system: RLL2 transcripts; experiment: RNA gel blot probed with rice LOX cDNA RLL2; type: in vivo; details: RNA from treated rice plants
[7] = HPLC analysis of reaction products of recombinant RCI-1; details: linoleic acid or linolenic acid as substrate, 0.1 M Tris-HCl pH 8.8, 20 min, 30° C.
Experimental: Lipoxygenase activity is measured at 30° C. photospectrometrically at 234 nm using linoleic acid as a substrate and 5-20 μl from the recombinant RCI-1 enzyme extract (Bohland et al. (1997) Plant Physiol. 114, 679-685). For determination of the pH optimum, different buffers with overlapping pH ranges (pH 4-6: 0.1 M Na-acetate; pH 6-8: 0.1 M Na-phosphate; pH 8-10: 0.1 M Tris-HCl) are used. The molar extinction coefficient of the reaction product, 2.5×10^7 cm^−1 mol^−1, is used for the calculation of the enzyme activity. […] The products of the enzymatic activity of the RCI-1 protein are analyzed by HPLC (Bohland et al. (1997) Plant Physiol. 114, 679-685). Approximately 0.2 nkat enzyme activity obtained from recombinant RCI-1 protein is incubated with 50 μl substrate solution (10 μl of linoleic or α-linolenic acid, respectively; 20 μl ethanol, 20 μl H2O) in 2 ml 0.1 M Tris-HCl pH 8.8 for 20 min. at 30° C. The reaction is stopped by lowering the pH to 3.0 with diluted HCl, and the hydroperoxides are extracted with 1 ml of CHCl3 followed by two washes with water. […] Products are detected at 234 nm and standards are obtained from Biomol (Hamburg, Germany) or prepared from linoleic or α-linolenic acid by incubation with soybean lipoxygenase, respectively, as described (Bohland et al. (1997) Plant Physiol. 114, 679-685).

[8] = Photospectrometric lipoxygenase activity of recombinant RCI-1 enzyme extract; details: linoleic acid as substrate
Experimental: Production of recombinant RCI-1 protein is induced by addition of 1 mM IPTG (final concentration) to a 250 ml E. coli M15 culture grown to an OD600 of 1 and further incubation on a shaker overnight at 19° C. The cells are harvested by centrifugation (5000 g, 10 minutes) and resuspended in 5 ml lysis buffer (50 mM Na-phosphate buffer pH 7.5 containing 1 mg l-1 lysozyme). After a 30 minute incubation on ice, the lysate is centrifuged (12000 g, 15 minutes) and the pellet is transferred into a mortar and ground in extraction buffer (0.1 M K-phosphate buffer pH 7, 30 mg polyvinyl-poly-pyrrolidone, 1 mM EDTA). After centrifugation, the clear supernatant is used as an enzyme preparation for further biochemical analysis.
Lipoxygenase activity is measured at 30° C. photospectrometrically at 234 nm using linoleic acid as a substrate and 5-20 μl from the recombinant RCI-1 enzyme extract (Bohland et al. (1997) Plant Physiol. 114, 679-685). For determination of the pH optimum, different buffers with overlapping pH ranges (pH 4-6: 0.1 M Na-acetate; pH 6-8: 0.1 M Na-phosphate; pH 8-10: 0.1 M Tris-HCl) are used. The molar extinction coefficient of the reaction product, 2.5×10^7 cm^−1 mol^−1, is used for the calculation of the enzyme activity.

[9] = rice leaves treated with INA, time course, RNA gel blot

Molecule: CC/C=C\C[C@H]1C(=O)CC[C@@H]1CC(=O)O [jasmonic acid]
- RCI-1 transcript levels ([1]; 7 to 12 h after spraying of a 1 mM solution onto rice leaves): strongly increase
- RCI-1 transcript (mRNA) accumulation [1]: strong hybridization signal

Molecule: N#CCNC(=O)c1ccnc(Cl)c1 [N-cyanomethyl-2-chloroisonicotinamid]
- resistance inducing activity against rice blast disease [2]: good resistance inducing activity
- induction of the enzyme lipoxygenase [3]: induced the enzyme lipoxygenase

Molecule: CSC(=O)c1cccc2nnsc12 [BTH, benzo(1,2,3)thiadiazole-7-carbothioic acid S-methyl ester]
- LOX enzymatic activity in rice leaves [4]: significant increase
- L-2 transcript accumulation [5]: do not accumulate
- RCI-1 transcript (mRNA) accumulation [1]: induces RCI1 transcript accumulation; also recorded: strong hybridization signal
- RLL2 transcript accumulation [6]: do not accumulate

Molecule: C=CCOC1=NS(=O)(=O)c2ccccc21 [probenazole]
- L-2 transcript accumulation [5]: do not accumulate
- RCI-1 transcript (mRNA) accumulation [1]: induces RCI1 transcript accumulation; also recorded: strong hybridization signal
- time course of RCI-1 mRNA accumulation ([1]; probenazole soil drench, compared with INA and BTH spraying): delayed time course
- RLL2 transcript accumulation [6]: do not accumulate

Molecule: O=C(O)c1cc(Cl)nc(Cl)c1 [INA, 2,6-dichloroisonicotinic acid]
- L-2 transcript accumulation [5]: do not accumulate
- RCI-1 transcript (mRNA) accumulation [1]: strong hybridization signal
- time after treatment at which RCI-1 transcripts reach maximal levels [1, 9]: 24 to 48 h
- time after treatment at which RCI-1 transcripts start to accumulate [1, 9]: 8 h
- RLL2 transcript accumulation [6]: do not accumulate

B1: RCI-1: rice lipoxygenase protein of 922 amino acids (SEQ ID NO:7) encoded by RCI-1 cDNA, expressed recombinantly in E. coli (protein, listed as Oryza sativa)
chain: MLTATQTLAPAVLSRSHGAPSSFSSQPRRTAAAASRVSCTRVGALSEVVNGELVVGDQEQTTDDLLTRHKNVVADYTLSATVTVSLKQDDSTPQKVADMVNRDWLFLDFFSSHIEGMHTEPQLARYSHMDGKGSFIYEASFSIPSSLDAVGAVQVVNRYSSEVYISDIDVHLCGGRHQWTDITFHCNSWIDYNPNDQRFFFPLKSYLPSQTPRGVKNLRKEELRAIRGDGRGERKEWERIYDYDVYNDLGDPDNDPATRRPVLGGRGRPYPRRCRTGRRRCRTDPSSESPPAKDGAGIYVPRDEAFTERKAGAFATKKALSALSAFTTAQRVSGDRRRGFPSLAAIDALYEDGYKNRPSSSQQEADNLEGYFREVLQKQVKLLLKGEKEEFKEELRKVFKFQTPEIHDKDKLAWFRDEEFARQTLAGMNPLSIQLVRDTDFPIFSKLDEETYGPGDSLITKELIEEQINGVMTAEEAVEKKKLFMLDYHDVLLPFVHAVRELDDTTLYASRTLFFLTEDGTLRPIAIELTRPKSPNTPQWRQVFTPGSSVAASWLWQLAKTHVLAHDTGYHQLVSHWLRTHCCVEPYVIAANRRLSQMHPIYRLLHPHFRFTMEINAQARGMLINANGIIESAFAPGKLCMELSSAVYDKFWRFDMEALPADLIRRGMAIECEDGKLELTIEDYPYANDGLLIWDSIKEWVSDYVNHYYQLASDIHMDKELQGWWNEVRTKGHPDKEEGWPELNCHGSLVEVLTTIIWVASGHHAAVNFGQYPYAGYFPNRPTIARRNMPTEGQACSHDGMQPTFVEDPVRVLLDTFPSQYQTTLVLPVLNLLSSHSPGEEYMGTHAESAWMADREVRAAFGRFNERMMSIAEMIDCRNKDPERKNRQGPGVVPYVLLKPSYGDPKDMTSVMEMGIPNSISI
- reaction product (9S)-hydroperoxy-(10E,12Z,15Z) octadecatrienoic acid (9-HPOD) [7]: only detected in minor amounts
- reaction product (13S)-hydroperoxy-(9Z,11E,15Z)-octadecatrienoic acid (13-HPOD) [7]: predominant product
- LOX activity of crude E. coli extract ([8]; 30° C., 234 nm, control extracts no detectable LOX activity): increased LOX activity
- pH of maximal LOX activity ([8]; buffers pH 4-10): 8 to 9 pH
